Assay results taken from patent US20060183122A1, “Fanc gene mutations in cancer” (priority 2002, published 2006).
“Also recorded” adds a separate entry of the source.

Columns and labels:
Type in all cases: cell-based
[1] = test system: BxPC3; assay: G2/M cell cycle arrest after MMC treatment (flow cytometry); settings: BxPC3 (control line); MMC 2 hours, analyzed 48 hours later; concentrations as high as
Experimental: (§1) Cells were cultured in 25 cm^2 flasks and treated with MMC for two hours. Cells were washed with PBS and incubated with normal tissue culture medium for 48 hours.
(§2) Cells were obtained by trypsinization and resuspended in 3.7% paraformaldehyde in PBS, stained with Hoechst 33258 (Sigma), incubated at 4° C. for 10 min and analyzed using a flow cytometer. A “G2/M arrest” was defined as a twofold increase of the percentage of cells in G2/M, as compared to untreated cells.
(§3) The methods used to investigate cell “survival” upon treatment with MMC and cisplatin sum the effects of cell death, slow growth and the occurrence of a cell cycle arrest. To determine the potential contribution of an arrest, we analyzed cell cycle distributions of DNA content after MMC treatment. Six pancreatic cancer cell lines (BxPC3, MiaPaCa2, Su86.86, PL11, Hs766T and CAPAN1) and one HNSCC cell line (FaDu) were analyzed 48 hours after MMC treatment for 2 hours; a G2/M arrest was defined as a twofold increase of the fraction of cells containing 4N DNA content, as compared to untreated cells (FIG. 4). Hs766T arrested in G2/M at a MMC concentration of 100 nM, PL11 at 100 nM, CAPAN1 at 200 nM and FaDu at 500 nM, whereas control pancreatic cancer cell lines MiaPaCa2, Su86.86 and BxPC3 […] at MMC concentrations as high as 2 μM.

[2] = test system: CAPAN1; assay: as above; settings: MMC 2 hours, analyzed 48 hours later, arrest = twofold increase of 4N fraction vs untreated
Experimental: as §1, §2, §3

[3] = test system: MiaPaCa2; assay: as above; settings: MiaPaCa2 (control line); MMC 2 hours, analyzed 48 hours later; concentrations as high as
Experimental: as §1, §2, §3

[4] = test system: Su86.86; assay: as above; settings: Su86.86 (control line); MMC 2 hours, analyzed 48 hours later; concentrations as high as
Experimental: as §1, §2, §3

[5] = test system: FaDu; assay: as above; settings: MMC 2 hours, analyzed 48 hours later, arrest = twofold increase of 4N fraction vs untreated
Experimental: as §1, §2, §3

[6] = test system: Hs766T; assay: as above; settings: MMC 2 hours, analyzed 48 hours later, arrest = twofold increase of 4N fraction vs untreated
Experimental: as §1, §2, §3

[7] = test system: PL11; assay: as above; settings: MMC 2 hours, analyzed 48 hours later, arrest = twofold increase of 4N fraction vs untreated
Experimental: as §1, §2, §3

[8] = test system: CAPAN1; assay: Survival study, manual (hemacytometer) cell counts; settings: manual cell counts after 3-4 population doublings (FIG. 3C)
Experimental: (§4) Cell counts: 1×10^5 cells were plated in tissue culture flasks (25 cm^2). The next day, the medium was substituted with MMC-containing medium (range 0-4.5 μM). Cells were counted after 3-4 population doublings (4-7 days) using a hemacytometer. Four experiments per cell line/concentration were done.
(§5) To confirm the results obtained with the Picogreen assay, we also assessed sensitivity to MMC of the cell lines MiaPaCa2, Su86.86, CAPAN1 and Hs766T with manual (hemacytometer) cell counts. This assay confirmed their hypersensitivity to MMC (FIG. 3C). The FA-defective HNSCC cell line FaDu was also hypersensitive to MMC (FIG. 3D), but not to cisplatin (FIG. 3E), as compared to the FA-proficient HNSCC cell lines A-253 and Detroit 562.

[9] = test system: Hs766T; assay: Survival study, manual (hemacytometer) cell counts; settings: manual cell counts after 3-4 population doublings (FIG. 3C)
Experimental: as §4, §5

[10] = test system: FaDu (FA-defective); assay: Survival study, Picogreen DNA quantitation
[11] = test system: CAPAN1 (BRCA2-mutated); assay: Survival study, Picogreen DNA quantitation
Experimental: (§6) Cells were incubated for a period of time long enough to allow non-treated cells to reach at least a threefold increase in fluorescence as compared to day 1 (3-7 days). Medium was changed every 48 hours. Cells were washed with PBS, and lysed in 100 μL sterile water. After 1 hour, 100 μl 0.5% Picogreen (Molecular Probes, Eugene, Oreg.) in tris-EDTA buffer was added to each well. After 45 minutes, wells were read in a fluorometer. Survival was calculated as a percentage; the wells without drugs were considered as 100 percent. Each experiment was done in duplicate; at least six experiments per cell line per concentration were performed.
(§7) The FA-defective pancreatic cancer cell lines Hs766T (FANCG-mutated), PL11 (FANCC-mutated) and CAPAN1 (BRCA2-mutated) and FA-proficient cell lines Su86.86 and MiaPaCa2 were treated with various concentrations of either MMC or cisplatin, and incubated in 96-well plates. Relative cell numbers were determined by measurement of doublestranded DNA content using Picogreen; wells containing no compound were used as controls. […] The FA-defective cell lines

[12] = test system: Hs766T (FANCG-mutated); assay: Survival study, Picogreen DNA quantitation
Experimental: as §6, §7

[13] = test system: PL11 (FANCC-mutated); assay: Survival study, Picogreen DNA quantitation
Experimental: as §6, §7

[14] = test system: Su86.86; assay: Survival study, Picogreen DNA quantitation; settings: compared to MiaPaCa2, less sensitive than CAPAN1 and PL11
Experimental: as §6, §7

[15] = 3-7 days, compared to MiaPaCa2 and Su86.86 (FIG. 3A)

For `CO[C@@]12[C@H](COC(N)=O)C3=C(C(=O)C(C)=C(N)C3=O)N1C[C@@H]1N[C@@H]12` [MMC, mitomycin C], the “MMC concentration at which cells arrested in G2/M” value (from here on “MMC concentration”) [1] was 2 µM, the “MMC concentration” value [2] was 200 nM and the “MMC concentration” value [3] was 2 µM. For the same compound, the “MMC concentration” value [4] was 2 µM, the “MMC concentration” value [5] was 500 nM and the “MMC concentration” value [6] was 100 nM. For the same compound, the “MMC concentration” value [7] was 100 nM, the “Sensitivity to MMC” value [8] was “hypersensitivity” and the “Sensitivity to MMC” value [9] was “hypersensitivity”. The “Sensitivity to MMC” value ([10]; compared to A-253 and Detroit 562 (FIG. 3D)) was “hypersensitive”, the “Sensitivity to MMC” value [11, 15] was “hypersensitive; also recorded: increased sensitivity” and the “Sensitivity to MMC” value [12, 15] was “hypersensitive; also recorded: increased sensitivity”. The “Sensitivity to MMC” value [13, 15] was “hypersensitive; also recorded: increased sensitivity”.
With `N.N.[Cl][Pt][Cl]` [cisplatin] the Hypersensitive to cisplatin ([10]; compared to A-253 and Detroit 562 (FIG. 3E)) was “not”, the Sensitivity to cisplatin ([11]; 3-7 days (FIG. 3B)) was “hypersensitive” and the Sensitivity to cisplatin ([12]; compared to MiaPaCa2, less sensitive than CAPAN1 and PL11) was “increased sensitivity”. The Sensitivity to cisplatin [14] was “increased sensitivity” and the Sensitivity to cisplatin ([13]; 3-7 days (FIG. 3B)) was “hypersensitive”.
